Measurements: patent US10549237B2, “Regenerable draw solute for osmotically driven processes” (NANYANG TECHNOLOGICAL UNIVERSITY, priority 2015, dated 2020)

Legend:
[1] = Residual Na2HPO4 concentration after acetone extractive crystallization of the supernatant (Example 2); format: physicochemical; details: acetone added to 10 wt % supernatant; lowest value, depends on amount of solvent
Method: […]. There is an instantaneous phase separation resulting in precipitation of solid crystal hydrates upon acetone addition. The mixture was allowed to settle for 1 hour before the solid crystals are removed. […] The Na2HPO4 concentration in water/acetone mixtures were then calculated accordingly. All the measurements were repeated for three times.

[2] = Water flux during forward osmosis in a cross-flow setup (Example 3, FIG. 2); details: 40 wt % draw solution
Method: Water flux during FO was measured in a cross-flow setup by monitoring the feed solution weight decrease with time. The method is adapted from a reported standard procedure. The initial weight of feed solution and draw solution was 500 g and 200 g, respectively. The effective membrane area was 58.5 cm^2. The feed and draw solutions flew in co-current in order to reduce the tension stress on membrane. The flow rate was 400 ml/min and plastic spacers were used in both feed and draw sides to reduce concentration polarization. During the tests, the temperature in draw solution and feed solution were monitored to be 50±1° C. and 46±2° C. respectively. The concentrations of feed solution and draw solution were kept virtually constant during the measurement. Water flux measurements were conducted in both FO mode (selective membrane layer facing towards feed solution) and PRO mode (selective layer facing towards draw solution). The water flux was calculated by: Flux=Δm/(A*t) (1)
Where Δm is the value of feed solution weight decrease (kg), t is the corresponding measurement time (h) and A is the membrane area in square meters. Therefore, the flux is in unit of liter per square meter per hour (LMH) if the density of water is assumed to be 1 kg/L.

residual Na2HPO4 concentration after extractive crystallization [1]: 0.28 wt %
water flux ([2]; feed 3.5 wt % NaCl (artificial seawater), FO mode, draw 50±1° C., feed 46±2° C.): 8 LMH
water flux ([2]; feed 3.5 wt % NaCl (artificial seawater), PRO mode, draw 50±1° C., feed 46±2° C.): 19 LMH
water flux ([2]; feed 17 wt % NaCl): about 1.0 LMH
Substance: Disodium phosphate
